Results as given in patent US8431140B2, “Topical compositions” (priority 2006, dated 2013).

Experiments:
[1] = Flux of acyclovir gels with different drug concentrations (saturation flux comparison); assay type: in vitro ADME; details: in the vehicle of Table 10a
[2] = intravenous administration of 7.5-10 mg three times daily; cited from earlier work

Acyclovir concentration giving a saturated formulation post-evaporation [1]: 0.06 % (w/w)
SMILES: Nc1nc2c(ncn2COCCO)c(=O)[nH]1 [acyclovir]
Serum concentrations of acyclovir [2]: 5000 to 10000 ng/mL
